Test results published in patent publication US6737383B1, “Herbicidal oxadiazolidines” (priority 1999, dated 2004).

Key:
[1] = system: sugar beet; experiment: Test B pre/postemergence sugar beet; assay type: in vivo, Beta vulgaris
Outline: (§1)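 Response is a visual 0-to-10 score relative to untreated plants, where 0 means no effect and 10 means complete control, taken twelve to sixteen days after application. Treatments went onto soil at planting and onto foliage of 1- to 4-leaf plants, using a surfactant-containing non-phytotoxic solvent.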

[2] = system: soybean; experiment: Test B pre/postemergence soybean; assay type: in vivo, Glycine max
Outline: as §1

[3] = system: pigweed; experiment: Test B pre/postemergence pigweed; assay type: in vivo, Amaranthus retroflexus
Outline: as §1

[4] = system: wild oat; experiment: Test B pre/postemergence wild oat; assay type: in vivo, Avena fatua
Outline: as §1

[5] = system: surinam grass; experiment: Test B pre/postemergence surinam grass; assay type: in vivo, Brachiaria decumbens
Outline: as §1

[6] = system: bedstraw; experiment: Test B pre/postemergence bedstraw; assay type: in vivo, Galium aparine
Outline: as §1

[7] = system: blackgrass; experiment: Test B pre/postemergence blackgrass; assay type: in vivo, Alopecurus myosuroides
Outline: as §1

[8] = system: smallflower flatsedge; experiment: Test B flood test smallflower flatsedge; assay type: in vivo, Cyperus difformis
Outline: (§2)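 Each value is a visual injury score relative to controls, with 10 meaning complete control and 0 no effect. Evaluation took place twelve to sixteen days after the 2-leaf-stage plants were treated and kept in the greenhouse.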

[9] = system: rape; experiment: Test B pre/postemergence rape; assay type: in vivo, Brassica napus
Outline: as §1

[10] = system: duck salad; experiment: Test B flood test duck salad; assay type: in vivo, Heteranthera limosa
Outline: as §2

[11] = system: rice; experiment: Test B flood test rice; assay type: in vivo, Oryza sativa
Outline: as §2

[12] = system: purple nutsedge; experiment: Test B pre/postemergence purple nutsedge; assay type: in vivo, Cyperus rotundus
Outline: as §1

[13] = system: wheat; experiment: Test B pre/postemergence wheat; assay type: in vivo, Triticum aestivum
Outline: as §1

[14] = system: corn; experiment: Test B pre/postemergence corn; assay type: in vivo, Zea mays
Outline: as §1

[15] = system: velvetleaf; experiment: Test B pre/postemergence velvetleaf; assay type: in vivo, Abutilon theophrasti
Outline: as §1

[16] = system: crabgrass; experiment: Test B pre/postemergence crabgrass; assay type: in vivo, Digitaria sanguinalis
Outline: as §1

[17] = Postemergence, Rate 125 g/ha, scale of 0 to 10 where 0 is no effect and 10 is complete control
[18] = Preemergence, Rate 62 g/ha, scale of 0 to 10 where 0 is no effect and 10 is complete control
[19] = Preemergence, Rate 125 g/ha, 0 is no effect, 10 is complete control
[20] = Preemergence, Rate 250 g/ha, scale 0 to 10, 0 is no effect, 10 is complete control
[21] = Preemergence, Rate 500 g/ha, scale 0 to 10 (0 no effect, 10 complete control)
[22] = Rate 62 g/ha, Postemergence, scale of 0 to 10 where 0 is no effect and 10 is complete control
[23] = Rate 250 g/ha, Postemergence, scale 0 to 10, 0 is no effect, 10 is complete control
[24] = Rate 500 g/ha, Postemergence, scale 0 to 10
[25] = Postemergence (flood test species), Rate 125 g/ha, scale of 0 to 10 where 0 is no effect and 10 is complete control
[26] = Rate 62 g/ha, Postemergence section, flood test species, scale of 0 to 10 where 0 is no effect and 10 is complete control
[27] = Rate 250 g/ha, Postemergence (flood test), scale 0 to 10, 0 is no effect, 10 is complete control
[28] = Rate 500 g/ha, listed under Postemergence (flood test species), scale 0 to 10

CC(C)Cn1c(=O)on(C(=O)N(c2ccc(F)cc2)C(C)C)c1=O [Compound 169]
Sugarbeets plant response rating [1, 17]: 0
Sugarbeets plant response rating [1, 18]: 0
Sugarbeets plant response rating (0 to 10 scale) [1, 19]: 0
Sugarbeets plant response rating [1, 20]: 7
Sugarbeets plant response rating [1, 21]: 8
Sugarbeets plant response rating [1, 22]: 0
Plant response rating, Sugarbeets [1, 23]: 0
Sugarbeets plant response rating [1, 24]: 0
Soybean plant response rating [2, 17]: 1
Soybean plant response rating [2, 18]: 0
Soybean plant response rating (0 to 10 scale) [2, 19]: 0
Soybean plant response rating [2, 20]: 2
Soybean plant response rating [2, 21]: 5
Soybean plant response rating [2, 22]: 1
Plant response rating, Soybean [2, 23]: 3
Soybean plant response rating [2, 24]: 6
Redroot pigweed plant response rating [3, 17]: 0
Redroot pigweed plant response rating [3, 18]: 6
Redroot pigweed plant response rating (0 to 10 scale) [3, 19]: 6
Redroot pigweed plant response rating [3, 20]: 8
Redroot pigweed plant response rating [3, 21]: 8
Redroot pigweed plant response rating [3, 22]: 0
Plant response rating, Redroot pigweed [3, 23]: 0
Redroot pigweed plant response rating [3, 24]: 3
Wild oats plant response rating [4, 18]: 8
Wild oats plant response rating (0 to 10 scale) [4, 19]: 8
Wild oats plant response rating [4, 20]: 8
Wild oats plant response rating [4, 21]: 10
Plant response rating, Wild oats [4, 23]: 0
Wild oats plant response rating [4, 24]: 2
B. signalgrass plant response rating [5, 17]: 0
B. signalgrass plant response rating [5, 18]: 7
B. signalgrass plant response rating (0 to 10 scale) [5, 19]: 7
B. signalgrass plant response rating [5, 20]: 7
B. signalgrass plant response rating [5, 21]: 7
B. signalgrass plant response rating [5, 22]: 0
Plant response rating, B. signalgrass [5, 23]: 0
B. signalgrass plant response rating ([5]; Rate 500 g/ha, Postemergence, scale 0 to 10, 0 no effect, 10 complete control): 7
Bedstraw plant response rating [6, 17]: 2
Bedstraw plant response rating [6, 18]: 0
Bedstraw plant response rating (0 to 10 scale) [6, 19]: 0
Bedstraw plant response rating [6, 20]: 7
Bedstraw plant response rating [6, 21]: 10
Bedstraw plant response rating [6, 22]: 2
Plant response rating, Bedstraw [6, 23]: 7
Blackgrass plant response rating [7, 17]: 4
Blackgrass plant response rating [7, 18]: 3
Blackgrass plant response rating (0 to 10 scale) [7, 19]: 3
Blackgrass plant response rating [7, 20]: 8
Blackgrass plant response rating [7, 21]: 10
Blackgrass plant response rating [7, 22]: 2
Plant response rating, Blackgrass [7, 23]: 5
Blackgrass plant response rating [7, 24]: 9
S. Flatsedge plant response rating [8, 25]: 0
S. Flatsedge plant response rating [8, 26]: 0
Plant response rating, S. Flatsedge [8, 27]: 0
S. Flatsedge plant response rating [8, 28]: 0
Rape plant response rating [9, 17]: 0
Rape plant response rating [9, 18]: 2
Rape plant response rating (0 to 10 scale) [9, 19]: 2
Rape plant response rating [9, 20]: 6
Rape plant response rating [9, 21]: 10
Rape plant response rating [9, 22]: 0
Plant response rating, Rape [9, 23]: 0
Rape plant response rating [9, 24]: 3
Ducksalad plant response rating [10, 25]: 0
Ducksalad plant response rating [10, 26]: 0
Plant response rating, Ducksalad [10, 27]: 0
Ducksalad plant response rating [10, 28]: 0
Rice plant response rating [11, 25]: 0
Rice plant response rating [11, 26]: 0
Plant response rating, Rice [11, 27]: 0
Rice plant response rating [11, 28]: 0
Nutsedge plant response rating [12, 17]: 0
Nutsedge plant response rating [12, 18]: 0
Nutsedge plant response rating (0 to 10 scale) [12, 19]: 0
Nutsedge plant response rating [12, 20]: 0
Nutsedge plant response rating [12, 21]: 3
Nutsedge plant response rating [12, 22]: 0
Plant response rating, Nutsedge [12, 23]: 0
Nutsedge plant response rating [12, 24]: 0
Wheat plant response rating [13, 18]: 0
Wheat plant response rating (0 to 10 scale) [13, 19]: 0
Wheat plant response rating [13, 20]: 3
Wheat plant response rating [13, 21]: 4
Plant response rating, Wheat [13, 23]: 0
Wheat plant response rating [13, 24]: 2
Corn plant response rating [14, 17]: 0
Corn plant response rating [14, 18]: 0
Corn plant response rating (0 to 10 scale) [14, 19]: 0
Corn plant response rating [14, 20]: 3
Corn plant response rating [14, 21]: 6
Corn plant response rating [14, 22]: 0
Plant response rating, Corn [14, 23]: 0
Corn plant response rating [14, 24]: 0
Velvetleaf plant response rating [15, 18]: 2
Velvetleaf plant response rating (0 to 10 scale) [15, 19]: 2
Velvetleaf plant response rating [15, 20]: 6
Velvetleaf plant response rating [15, 21]: 8
Plant response rating, Velvetleaf [15, 23]: 0
Velvetleaf plant response rating [15, 24]: 0
Crabgrass plant response rating [16, 17]: 8
Crabgrass plant response rating [16, 18]: 8
Crabgrass plant response rating (0 to 10 scale) [16, 19]: 8
Crabgrass plant response rating [16, 20]: 10
Crabgrass plant response rating [16, 21]: 10
Crabgrass plant response rating [16, 22]: 2
Plant response rating, Crabgrass [16, 23]: 9
Crabgrass plant response rating [16, 24]: 9
